# Results taken from publication PMC3280214, “Structure Based Discovery of Small Molecules to Regulate the Activity of Human Insulin Degrading Enzyme” (PLoS ONE, 2012).
# Target: T1, mutant IDE (Gln363Ala) (Homo sapiens, UniProt P14735, Q363A)
# T1 construct: made in house; host or cells: E. coli (BL21 inferred, as for the wild type)
# T1 sequence (P14735 1-1019 Q363A): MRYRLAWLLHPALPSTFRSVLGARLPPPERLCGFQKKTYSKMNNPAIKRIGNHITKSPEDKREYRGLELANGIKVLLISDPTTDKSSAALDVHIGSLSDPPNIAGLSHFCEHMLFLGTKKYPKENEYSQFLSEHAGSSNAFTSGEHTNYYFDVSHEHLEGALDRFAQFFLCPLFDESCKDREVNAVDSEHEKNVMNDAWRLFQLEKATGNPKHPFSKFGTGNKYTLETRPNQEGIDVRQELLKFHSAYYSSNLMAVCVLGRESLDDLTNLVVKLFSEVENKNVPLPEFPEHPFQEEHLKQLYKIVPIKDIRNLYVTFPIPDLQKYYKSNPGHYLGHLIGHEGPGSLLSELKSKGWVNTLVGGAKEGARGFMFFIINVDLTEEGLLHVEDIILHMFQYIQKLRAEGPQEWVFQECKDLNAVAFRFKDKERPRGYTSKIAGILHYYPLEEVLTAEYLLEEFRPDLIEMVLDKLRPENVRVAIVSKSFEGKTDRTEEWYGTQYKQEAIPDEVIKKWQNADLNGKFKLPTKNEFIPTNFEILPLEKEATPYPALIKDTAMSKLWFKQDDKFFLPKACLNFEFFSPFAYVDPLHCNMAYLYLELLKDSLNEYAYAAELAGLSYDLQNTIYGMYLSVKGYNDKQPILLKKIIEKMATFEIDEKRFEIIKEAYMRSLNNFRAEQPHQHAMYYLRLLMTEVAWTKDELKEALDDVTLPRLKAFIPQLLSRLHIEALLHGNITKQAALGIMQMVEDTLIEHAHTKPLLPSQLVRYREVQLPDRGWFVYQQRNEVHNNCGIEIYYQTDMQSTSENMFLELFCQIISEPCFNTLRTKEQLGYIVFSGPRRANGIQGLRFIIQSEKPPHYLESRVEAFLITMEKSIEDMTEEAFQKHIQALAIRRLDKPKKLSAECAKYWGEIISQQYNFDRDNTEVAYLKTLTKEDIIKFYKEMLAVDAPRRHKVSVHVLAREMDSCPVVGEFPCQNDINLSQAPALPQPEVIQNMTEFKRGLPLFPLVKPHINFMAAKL
# Assay: FITC-insulin-mAb degradation by mutant IDE (Gln363Ala)
# Type: biochemical
# Settings: Gln363Ala vs wild type IDE; 20 µM D10
# From the text: Since D10 has been found as the strongest activator of IDE towards the proteolysis of insulin, we analyzed the binding site of the compound D10 for the further analysis. According to the computational results, D10 binds to Gln363 at the IDE exosite and His332 (Fig. 1D). We carried out site-directed mutagenesis by replacing these amino acids into Ala in order to verify that D10 indeed binds to this region via these amino acids. We first mutated Gln363 to Ala and then expressed and purified mutant protein through nickel resin. The effect of D10 on the proteolytic activity of mutant IDE (Gln363Ala) was measured towards FITC-insulin-mAb degradation. […] The activation was about 49-fold in the presence of D10 with wild type IDE (Fig. 2B). Although mutant IDE activity was less responsive to D10 compound compared to wild type IDE, it appeared as if D10 were interacting with IDE through […] and could enhance the activity of mutant IDE. […]
# The utility of these novel compounds were tested on degradation of insulin by IDE. […] The proteolysis of insulin by IDE was monitored by measuring the changes in fluorescence, where the reaction was carried out with 100 nM of FITC- insulin-mAb and IDE (80 ng) in 100 µl KH2PO4 buffer at a pH of 7.3. […] The increase in fluorescence was monitored by using Fluoroskan Ascent FL microplate reader (Thermo).
smiles,measurement,value
Cc1nn(-c2ccccc2)c2nc(-c3cccc([N+](=O)[O-])c3)n3c4ccccc4nc3c2c1=O [Compound D10],reduction of compound-enhanced activation with mutant IDE,10 fold
